# Measurements: patent publication US5198418A, “Substituted alkylamides of teicoplanin compounds” (Gruppo Lepetit S.p.A., priority 1987, dated 1993)
# What was measured:
# S. pyogenes C 203 = experiment: in vivo activity in mice infected with S. pyogenes
# E. coli SKF 12140 = experiment: in vitro antibacterial activity, MIC; format: cell-based; conditions: inoculum about 10^4 CFU/ml, 18-24 h at 37° C.
# Method: (§1) ISOSENSITEST broth, culture medium (Oxoid) and Todd-Hewitt broth, culture medium (Difco) are used for growing staphylococci and streptococci, respectively. Broth cultures are diluted so that the final inoculum is about 10^4 colony forming units/ml (CFU/ml).
# [1] = test system: Proteus vulgaris X 19H ATCC 881; experiment: in vitro antibacterial activity, MIC; format: cell-based; conditions: inoculum about 10^4 CFU/ml, 18-24 h at 37° C.
# Method: as §1
# [2] = test system: Pseudomonas aeruginosa ATCC 10145; experiment: in vitro antibacterial activity, MIC; format: cell-based; conditions: inoculum about 10^4 CFU/ml, 18-24 h at 37° C.
# Method: as §1
# Staph. aureus Tour = experiment: in vitro antibacterial activity, MIC; format: cell-based; conditions: inoculum about 10^4 CFU/ml, 18-24 h at 37° C.
# Method: as §1
# [3] = test system: Staph. epidermidis ATCC 12228; experiment: in vitro antibacterial activity, MIC; format: cell-based; conditions: inoculum about 10^4 CFU/ml, 18-24 h at 37° C.
# Method: as §1
# Staph. haemoliticus 602 = experiment: in vitro antibacterial activity, MIC; format: cell-based; conditions: inoculum about 10^4 CFU/ml, 18-24 h at 37° C.
# Method: as §1
# [4] = test system: Strepto. faecalis ATCC 7080; experiment: in vitro antibacterial activity, MIC; format: cell-based; conditions: inoculum about 10^4 CFU/ml, 18-24 h at 37° C.
# Method: as §1
# [5] = test system: Strepto. pneumoniae UC 41; experiment: in vitro antibacterial activity, MIC; format: cell-based; conditions: inoculum about 10^4 CFU/ml, 18-24 h at 37° C.
# Method: as §1
# Strepto. pyogenes C 203 = experiment: in vitro antibacterial activity, MIC; format: cell-based; conditions: inoculum about 10^4 CFU/ml, 18-24 h at 37° C.
# Method: as §1
MIC (E. coli SKF 12140) [µg/mL],MIC [1] [µg/mL],MIC [2] [µg/mL],MIC (Staph. aureus Tour) [µg/mL],MIC [3] [µg/mL],MIC (Staph. haemoliticus 602) [µg/mL],MIC [4] [µg/mL],MIC [5] [µg/mL],MIC (Strepto. pyogenes C 203) [µg/mL],Compound,ED50 (S. pyogenes C 203; route of administration p.o.) [mg/kg],ED50 (S. pyogenes C 203; route of administration s.c) [mg/kg]
–,–,–,–,–,–,–,–,–,CCCCC(NC(=O)C1NC(=O)C2NC(=O)C(NC(=O)C3NC(=O)C4NC(=O)C(Cc5ccc(c(Cl)c5)Oc5cc3cc(c5O)Oc3ccc(cc3Cl)C2O)NC(=O)C(NC(=O)OC(C)(C)C)c2ccc(O)c(c2)Oc2cc(O)cc4c2)c2ccc(O)c(c2)-c2c(O)cc(O)cc21)C(=O)NCCS (centres unmarked) [Compound 20],> 300,8.70
> 128,> 128,> 128,0.12,0.06,0.12,0.12,0.12,0.12,Cl.NC1C(=O)NC2Cc3ccc(c(Cl)c3)Oc3cc4cc(c3O)Oc3ccc(cc3Cl)C(O)C3NC(=O)C(NC(=O)C4NC(=O)C(NC2=O)c2cc(O)cc(c2)Oc2cc1ccc2O)c1ccc(O)c(c1)-c1c(O)cc(O)cc1C(C(=O)NC(CCC(=O)N1CCSCC1)C(=O)N1CCSCC1)NC3=O (centres unmarked) [Compound 22],–,–
